Results reported in patent US20250034170A1, “SMALL MOLECULE MODULATORS OF GLUCOCEREBROSIDASE ACTIVITY AND USES THEREOF” (Vanqua Bio, Inc., priority 2021, published 2025).

Target: T1, GCase (Homo sapiens, UniProt P04062)
T1 construct: endogenous in cells; host or cells: HeLa cells
T1 sequence (P04062 40-536): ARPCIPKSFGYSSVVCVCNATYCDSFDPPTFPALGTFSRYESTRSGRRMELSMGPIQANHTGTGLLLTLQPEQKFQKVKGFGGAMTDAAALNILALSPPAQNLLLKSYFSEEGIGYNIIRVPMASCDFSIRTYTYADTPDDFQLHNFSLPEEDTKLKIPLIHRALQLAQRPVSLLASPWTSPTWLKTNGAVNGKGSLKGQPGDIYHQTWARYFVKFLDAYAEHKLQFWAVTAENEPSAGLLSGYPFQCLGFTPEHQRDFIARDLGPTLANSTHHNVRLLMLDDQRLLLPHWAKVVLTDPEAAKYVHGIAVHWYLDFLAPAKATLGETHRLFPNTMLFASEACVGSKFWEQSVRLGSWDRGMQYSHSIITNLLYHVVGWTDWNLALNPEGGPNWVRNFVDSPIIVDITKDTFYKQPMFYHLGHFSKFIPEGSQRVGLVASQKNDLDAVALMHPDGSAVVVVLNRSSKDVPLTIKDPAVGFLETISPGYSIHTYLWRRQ
Assay: activation of GCase in a live cell PFB assay in HELA cells
Format: cell-based
Settings: activation of GCase, EC50 ranges
Protocol: Exemplary compounds were evaluated for activation of GCase in a live cell PFB assay in HELA cells (essentially as described in Ysselstein et al., “LRRK2 kinase activity regulates lysosomal glucocerebrosidase in neurons derived from Parkinson's disease patients” Nature Communications (2019) 10:5570). […] EC50 ranges: A: <10 μM; B: >10-50 μM; C: >50-100 μM; D: >100 μM.

| SMILES | EC50 |
| --- | --- |
| FC(F)Cn1ncc2ncc(N3CCC4(C3)CN(c3ncc(C(F)(F)F)cn3)C4)nc21 [Cmpd 319] | 10 to 50 µM |
| O=C(c1ccc(C(F)(F)F)nc1)N1CC2(CCN(c3cnc4cnn(CC(F)F)c4n3)C2)C1 [Cmpd 322] | 10 to 50 µM |
| O=C(c1ccc(C(F)(F)F)cn1)N1CC2(CCN(c3cnc4cnn(CC(F)F)c4n3)C2)C1 [Cmpd 323] | > 100 µM |
| O=C(c1cnc(C(F)(F)F)nc1)N1CCC2(CCN(c3cnc4cnn(CC(F)F)c4n3)CC2)C1 [Cmpd 324] | 10 to 50 µM |
| O=C(c1cnc(C(F)(F)F)nc1)N1CC2(CCN(c3cnc4cnn(CC(F)F)c4n3)C2)C1 [Cmpd 325] | 10 to 50 µM |
| O=C(c1cnc(C(F)(F)F)nc1)N1CC2(CCN(c3cnc4cnn(CC(F)F)c4n3)CC2)C1 [Cmpd 326] | 10 to 50 µM |
| O=C(c1ccc(C(F)(F)F)nc1)N1CC2(CCN(c3cnc4cnn(CC(F)F)c4n3)CC2)C1 [Cmpd 327] | 10 to 50 µM |
| O=C(c1ccc(C(F)(F)F)cn1)N1CC2(CCN(c3cnc4cnn(CC(F)F)c4n3)CC2)C1 [Cmpd 328] | 10 to 50 µM |
| O=C(c1cnc(C(F)(F)F)nc1)N1CCC2(CC1)CN(c1cnc3cnn(CC(F)F)c3n1)C2 [Cmpd 329] | 10 to 50 µM |
| O=C(c1ccc(C(F)(F)F)cn1)N1CCC2(CC1)CN(c1cnc3cnn(CC(F)F)c3n1)C2 [Cmpd 330] | 10 to 50 µM |
| O=C1N(Cc2cncc(F)c2)CCC12CCN(c1cnc3cnn(CC(F)F)c3n1)CC2 [Cmpd 331] | 10 to 50 µM |
| O=C1CC2(CCN(c3cnc4cnn(CC(F)F)c4n3)CC2)CN1Cc1cncc(F)c1 [Cmpd 334] | 50 to 100 µM |
| O=C1CC2(CCN(c3cnc4cnn(CC(F)F)c4n3)CC2)CN1Cc1cncc(C(F)(F)F)c1 [Cmpd 335] | 10 to 50 µM |
| O=C1CC2(CCN(c3cnc4cnn(CC(F)F)c4n3)CC2)CN1Cc1cncc(Cl)c1 [Cmpd 336] | 10 to 50 µM |
| O=C1CC2(CN(c3cnc4cnn(CC(F)F)c4n3)C2)CN1c1ccnc(C(F)(F)F)c1 [Cmpd 338] | 10 to 50 µM |
| O=C1N(c2cnc3cnn(CC(F)F)c3n2)CCC12CN(c1ccnc(C(F)(F)F)c1)C2 [Cmpd 339] | 10 to 50 µM |
| O=C1N(c2ccc(C(F)(F)F)cn2)CCCC12CN(c1cnc3cnn(CC(F)F)c3n1)C2 [Cmpd 341] | 10 to 50 µM |

| SMILES | EC50 |
| --- | --- |
| O=C1N(c2cnc3cnn(CC(F)F)c3n2)CCCC12CN(c1ccc(C(F)(F)F)nc1)C2 [Cmpd 342] | > 100 µM |
| O=C1N(c2cnc3cnn(CC(F)F)c3n2)CCCC12CN(c1ccc(C(F)(F)F)cn1)C2 [Cmpd 343] | > 100 µM |
| O=C1N(c2ccnc(C(F)(F)F)c2)CCC12CN(c1cnc3cnn(C4COC4)c3n1)C2 [Cmpd 346] | 50 to 100 µM |
| Cc1nn(C2COC2)c2nc(N3CC4(CCN(c5ccnc(C(F)(F)F)c5)C4=O)C3)cnc12 [Cmpd 347] | 10 to 50 µM |
| O=C1CC2(CN(c3cnc4cnn(C5COC5)c4n3)C2)CN1c1ccnc(C(F)(F)F)c1 [Cmpd 348] | 10 to 50 µM |
| Cc1nn(C2COC2)c2nc(N3CC4(CC(=O)N(c5ccnc(C(F)(F)F)c5)C4)C3)cnc12 [Cmpd 349] | 10 to 50 µM |
| CCOc1ccc(CN2CCC3(CCN(c4cnc5cnn(CC(F)F)c5n4)CC3)C2=O)cn1 [Cmpd 356] | 10 to 50 µM |
| CCOc1ccc(CN2CC3(CCN(c4cnc5cnn(CC(F)F)c5n4)CC3)CC2=O)cn1 [Cmpd 361] | 10 to 50 µM |
| O=C1N(Cc2nc(C(F)(F)F)cs2)CCC12CCN(c1cnc3cnn(CC(F)F)c3n1)CC2 [Cmpd 365] | 10 to 50 µM |
| CCc1csc(CN2CC3(CCN(c4cnc5cnn(CC(F)F)c5n4)CC3)CC2=O)n1 [Cmpd 367] | 10 to 50 µM |
| O=C1CC2(CCN(c3cnc4cnn(CC(F)F)c4n3)CC2)CN1Cc1cnc(C(F)(F)F)s1 [Cmpd 369] | 10 to 50 µM |
| O=C(c1ccc(OC(F)(F)F)cc1)N1CC2(CCN(c3cnc4cnn(CC(F)F)c4n3)C2)C1 [Cmpd 370] | 10 to 50 µM |
| O=S(=O)(c1ccc(C(F)(F)F)cc1)N1CC2(CCN(c3cnc4cnn(CC(F)F)c4n3)C2)C1 [Cmpd 372] | 10 to 50 µM |
| O=S(=O)(c1ccc(F)cc1)N1CC2(CCN(c3cnc4cnn(CC(F)F)c4n3)C2)C1 [Cmpd 373] | 10 to 50 µM |
| O=S(=O)(c1cccc(C(F)(F)F)c1)N1CC2(CCN(c3cnc4cnn(CC(F)F)c4n3)C2)C1 [Cmpd 374] | 10 to 50 µM |
| O=S(=O)(c1cccc(F)c1)N1CC2(CCN(c3cnc4cnn(CC(F)F)c4n3)C2)C1 [Cmpd 375] | < 10 µM |

Other lines, results leading:

| EC50 | SMILES |
| --- | --- |
| < 10 µM | FC(F)Cn1ncc2ncc(N3CCC4(CN(Cc5ccc(C(F)(F)F)nc5)C4)C3)nc21 [Cmpd 320] |
| < 10 µM | FC(F)Cn1ncc2ncc(N3CCC4(CN(Cc5ccc(C(F)(F)F)cn5)C4)C3)nc21 [Cmpd 321] |
| < 10 µM | O=C1N(Cc2cncc(C(F)(F)F)c2)CCC12CCN(c1cnc3cnn(CC(F)F)c3n1)CC2 [Cmpd 332] |
| < 10 µM | O=C1N(Cc2cncc(Cl)c2)CCC12CCN(c1cnc3cnn(CC(F)F)c3n1)CC2 [Cmpd 333] |
| < 10 µM | O=C1N(c2ccnc(C(F)(F)F)c2)CCC12CN(c1cnc3cnn(CC(F)F)c3n1)C2 [Cmpd 337] |
| < 10 µM | O=C1CC2(CN(c3ccnc(C(F)(F)F)c3)C2)CN1c1cnc2cnn(CC(F)F)c2n1 [Cmpd 340] |
| < 10 µM | FC(F)(F)c1cc(N2CCC3(C2)CN(c2cnc4cnn(C5COC5)c4n2)C3)ccn1 [Cmpd 344] |
| < 10 µM | Cc1nn(C2COC2)c2nc(N3CC4(CCN(c5ccnc(C(F)(F)F)c5)C4)C3)cnc12 [Cmpd 345] |
| < 10 µM | FC(F)(F)Cn1ncc2ncc(N3CC4(CCN(c5ccnc(C(F)(F)F)c5)C4)C3)nc21 [Cmpd 350] |
| < 10 µM | FC(F)Cn1ncc2cnc(N3CC4(CCN(c5ccnc(C(F)(F)F)c5)C4)C3)nc21 [Cmpd 351] |
| < 10 µM | Cc1nn(CC(F)F)c2nc(N3CC4(CCN(c5ccnc(C(F)(F)F)c5)C4)C3)ncc12 [Cmpd 352] |
| < 10 µM | Cc1nn(CC(F)F)c2nc(N3CC4(CCN(c5ccnc(C(F)(F)F)c5)C4)C3)cnc12 [Cmpd 353] |
| < 10 µM | O=C1N(Cc2cccc(C(F)(F)F)n2)CCC12CCN(c1cnc3cnn(CC(F)F)c3n1)CC2 [Cmpd 354] |
| < 10 µM | O=C1N(Cc2cc(C(F)(F)F)ccn2)CCC12CCN(c1cnc3cnn(CC(F)F)c3n1)CC2 [Cmpd 355] |
| < 10 µM | O=C1N(Cc2ccnc(C(F)(F)F)c2)CCC12CCN(c1cnc3cnn(CC(F)F)c3n1)CC2 [Cmpd 357] |
| < 10 µM | O=C1N(Cc2cc(F)cc(F)c2)CCC12CCN(c1cnc3cnn(CC(F)F)c3n1)CC2 [Cmpd 358] |
| < 10 µM | O=C1CC2(CCN(c3cnc4cnn(CC(F)F)c4n3)CC2)CN1Cc1cc(C(F)(F)F)ccn1 [Cmpd 359] |
| < 10 µM | O=C1CC2(CCN(c3cnc4cnn(CC(F)F)c4n3)CC2)CN1Cc1cccc(C(F)(F)F)n1 [Cmpd 360] |
| < 10 µM | O=C1CC2(CCN(c3cnc4cnn(CC(F)F)c4n3)CC2)CN1Cc1ccnc(C(F)(F)F)c1 [Cmpd 362] |
| < 10 µM | O=C1CC2(CCN(c3cnc4cnn(CC(F)F)c4n3)CC2)CN1Cc1cc(F)cc(F)c1 [Cmpd 363] |
| < 10 µM | CCc1csc(CN2CCC3(CCN(c4cnc5cnn(CC(F)F)c5n4)CC3)C2=O)n1 [Cmpd 364] |
| < 10 µM | O=C1N(Cc2cnc(C(F)(F)F)s2)CCC12CCN(c1cnc3cnn(CC(F)F)c3n1)CC2 [Cmpd 366] |
| < 10 µM | O=C1CC2(CCN(c3cnc4cnn(CC(F)F)c4n3)CC2)CN1Cc1nc(C(F)(F)F)cs1 [Cmpd 368] |
| < 10 µM | O=C(c1cccc(Cl)c1)N1CC2(CCN(c3cnc4cnn(CC(F)F)c4n3)C2)C1 [Cmpd 371] |
